Reference: patent US20170190671A1, “BIS(ARYL)CATECHOL DERIVATIVES AS HERBICIDES” (E I DU PONT DE NEMOURS AND COMPANY, priority 2014, published 2017)

Assays:
Experiment in all cases: Test C preemergence
Assay type in all cases: in vivo
[1] = system: pigweed (Amaranthus retroflexus); details: Amaranthus retroflexus, pre-emergence, 336 h, scale 0 to 100, read-out: Plant response rating, Pigweed
Procedure, shortened: (§1)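 Visual ratings (0 none to 100 complete control) were made 13 to 15 days after treatment, relative to controls. Test chemicals, formulated in a non-phytotoxic solvent mixture with surfactant, were applied in the greenhouse preemergence to seeded loam-sand soil or postemergence to plants 2 to 18 cm tall.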

[2] = system: yellow nutsedge (Cyperus esculentus); details: Cyperus, pre-emergence, 336 h, scale 0 to 100, read-out: Plant response rating, Nutsedge, Yellow
Procedure, shortened: as §1

soybean (Glycine max) = details: Glycine max, pre-emergence, scale 0 to 100, read-out: Plant response rating, Soybean
Procedure, shortened: as §1

[3] = system: winter wheat (Triticum aestivum); details: Triticum aestivum, pre-emergence, 336 h, scale 0 to 100, read-out: Plant response rating, Wheat
Procedure, shortened: as §1

[4] = system: blackgrass (Alopecurus myosuroides); details: Alopecurus myosuroides, pre-emergence, 336 h, scale 0 to 100, read-out: Plant response rating, Blackgrass
Procedure, shortened: as §1

[5] = system: morningglory (Ipomoea coccinea); details: Ipomoea, pre-emergence, 336 h, scale 0 to 100, read-out: Plant response rating, Morningglory
Procedure, shortened: as §1

[6] = system: velvetleaf (Abutilon theophrasti); details: Abutilon theophrasti, pre-emergence, scale 0 to 100, read-out: Plant response rating, Velvetleaf
Procedure, shortened: as §1

[7] = system: Italian ryegrass (Lolium multiflorum); details: Lolium multiflorum, pre-emergence, 336 h, scale 0 to 100, read-out: Plant response rating, Ryegrass, Italian
Procedure, shortened: as §1

[8] = system: waterhemp (common waterhemp, Amaranthus rudis); details: Amaranthus tuberculatus, pre-emergence, scale 0 to 100, read-out: Plant response rating, Waterhemp
Procedure, shortened: as §1

[9] = system: lambsquarters (Chenopodium album); details: Chenopodium album, pre-emergence, 336 h, scale 0 to 100, read-out: Plant response rating, Lambsquarters
Procedure, shortened: as §1

[10] = system: oilseed rape (Brassica napus); details: Brassica napus, pre-emergence, scale 0 to 100, read-out: Plant response rating, Oilseed Rape
Procedure, shortened: as §1

[11] = system: ragweed (common ragweed, Ambrosia elatior); details: Ambrosia artemisiifolia, pre-emergence, 336 h, scale 0 to 100, read-out: Plant response rating, Ragweed
Procedure, shortened: as §1

[12] = system: giant foxtail (Setaria faberii); details: Setaria faberi, pre-emergence, 336 h, scale 0 to 100, read-out: Plant response rating, Foxtail, Giant
Procedure, shortened: as §1

[13] = system: large (Lg) crabgrass (Digitaria sanguinalis); details: Digitaria sanguinalis, pre-emergence, 336 h, scale 0 to 100, read-out: Plant response rating, Crabgrass, Large
Procedure, shortened: as §1

corn (Zea mays) = details: Zea mays, pre-emergence, 336 h, scale 0 to 100
Procedure, shortened: as §1

With `N#Cc1cccc(Oc2ncc(Cl)cn2)c1Oc1ccc(Br)cn1` [Compound 15] the pest or weed control at 31 g/ha ([1]; 31 g ai/ha, preemergence) was 100%, the pest or weed control at 62 g/ha ([1]; 62 g ai/ha, preemergence) was 100% and the pest or weed control at 125 g/ha ([1]; 125 g ai/ha, preemergence) was 100%. It also gave a pest or weed control at 16 g/ha ([1]; Preemergence, 16 g ai/ha) of 80%, a pest or weed control at 31 g/ha ([2]; 31 g ai/ha, preemergence) of 0% and a pest or weed control at 62 g/ha ([2]; 62 g ai/ha, preemergence) of 0%. The pest or weed control at 125 g/ha ([2]; 125 g ai/ha, preemergence) was 25%, the pest or weed control at 16 g/ha ([2]; Preemergence, 16 g ai/ha) was 0% and the plant injury at 31 g/ha (soybean (Glycine max); 31 g ai/ha, preemergence) was 30%. The plant injury at 62 g/ha (soybean (Glycine max); 62 g ai/ha, preemergence) was 40%, the plant injury at 125 g/ha (soybean (Glycine max); 125 g ai/ha, preemergence) was 60% and the plant injury at 16 g/ha (soybean (Glycine max); Preemergence, 16 g ai/ha) was 20%. It also gave a plant injury at 31 g/ha ([3]; 31 g ai/ha, preemergence) of 0%, a plant injury at 62 g/ha ([3]; 62 g ai/ha, preemergence) of 5% and a plant injury at 125 g/ha ([3]; 125 g ai/ha, preemergence) of 40%. For the same molecule, the plant injury at 16 g/ha ([3]; Preemergence, 16 g ai/ha) was 0%, the pest or weed control at 31 g/ha ([4]; 31 g ai/ha, preemergence) was 0% and the pest or weed control at 62 g/ha ([4]; 62 g ai/ha, preemergence) was 10%. For the same molecule, the pest or weed control at 125 g/ha ([4]; 125 g ai/ha, preemergence) was 80%, the pest or weed control at 16 g/ha ([4]; Preemergence, 16 g ai/ha) was 0% and the pest or weed control at 31 g/ha ([5]; 31 g ai/ha, preemergence) was 5%. For the same molecule, the pest or weed control at 62 g/ha ([5]; 62 g ai/ha, preemergence) was 40%, the pest or weed control at 125 g/ha ([5]; 125 g ai/ha, preemergence) was 70% and the pest or weed control at 16 g/ha ([5]; Preemergence, 16 g ai/ha) was 5%. It also gave a pest or weed control at 31 g/ha ([6]; 31 g ai/ha, preemergence) of 75%, a pest or weed control at 62 g/ha ([6]; 62 g ai/ha, preemergence) of 90% and a pest or weed control at 125 g/ha ([6]; 125 g ai/ha, preemergence) of 100%. It also gave a pest or weed control at 16 g/ha ([6]; Preemergence, 16 g ai/ha) of 60%, a pest or weed control at 31 g/ha ([7]; 31 g ai/ha, preemergence) of 5% and a pest or weed control at 62 g/ha ([7]; 62 g ai/ha, preemergence) of 40%. For the same molecule, the pest or weed control at 125 g/ha ([7]; 125 g ai/ha, preemergence) was 60%, the pest or weed control at 16 g/ha ([7]; Preemergence, 16 g ai/ha) was 0% and the pest or weed control at 31 g/ha ([8]; 31 g ai/ha, preemergence) was 100%. For the same molecule, the pest or weed control at 62 g/ha ([8]; 62 g ai/ha, preemergence) was 100%, the pest or weed control at 125 g/ha ([8]; 125 g ai/ha, preemergence) was 100% and the pest or weed control at 16 g/ha ([8]; Preemergence, 16 g ai/ha) was 100%. The pest or weed control at 31 g/ha ([9]; 31 g ai/ha, preemergence) was 80%, the pest or weed control at 62 g/ha ([9]; 62 g ai/ha, preemergence) was 98% and the pest or weed control at 125 g/ha ([9]; 125 g ai/ha, preemergence) was 95%. For the same molecule, the pest or weed control at 16 g/ha ([9]; Preemergence, 16 g ai/ha) was 70%, the plant injury at 31 g/ha ([10]; 31 g ai/ha, preemergence) was 98% and the plant injury at 62 g/ha ([10]; 62 g ai/ha, preemergence) was 100%. The plant injury at 125 g/ha ([10]; 125 g ai/ha, preemergence) was 100%, the plant injury at 16 g/ha ([10]; Preemergence, 16 g ai/ha) was 25% and the pest or weed control at 31 g/ha ([11]; 31 g ai/ha, preemergence) was 30%. It also gave a pest or weed control at 62 g/ha ([11]; 62 g ai/ha, preemergence) of 50%, a pest or weed control at 125 g/ha ([11]; 125 g ai/ha, preemergence) of 40% and a pest or weed control at 16 g/ha ([11]; Preemergence, 16 g ai/ha) of 0%. The pest or weed control at 31 g/ha ([12]; 31 g ai/ha, preemergence) was 80%, the pest or weed control at 62 g/ha ([12]; 62 g ai/ha, preemergence) was 100% and the pest or weed control at 125 g/ha ([12]; 125 g ai/ha, preemergence) was 100%. It also gave a pest or weed control at 16 g/ha ([12]; Preemergence, 16 g ai/ha) of 70%, a pest or weed control at 31 g/ha ([13]; 31 g ai/ha, preemergence) of 100% and a pest or weed control at 62 g/ha ([13]; 62 g ai/ha, preemergence) of 100%. The pest or weed control at 125 g/ha ([13]; 125 g ai/ha, preemergence) was 100%, the pest or weed control at 16 g/ha ([13]; Preemergence, 16 g ai/ha) was 75% and the Corn plant response rating (crop injury, 0 = no effect, 100 = complete kill) at 31 g/ha (corn (Zea mays); 31 g ai/ha, preemergence) was 0%. It also gave a Corn plant response rating (crop injury, 0 = no effect, 100 = complete kill) at 62 g/ha (corn (Zea mays); 62 g ai/ha, preemergence) of 5%, a Corn plant response rating (crop injury, 0 = no effect, 100 = complete kill) at 125 g/ha (corn (Zea mays); 125 g ai/ha, preemergence) of 40% and a Corn plant response rating (crop injury, 0 = no effect, 100 = complete kill) at 16 g/ha (corn (Zea mays); Preemergence, 16 g ai/ha) of 0%.
